The supplement of paper PMC10307832

Experiments:
Test in all cases: relative viability (nuclei count vs DMSO), 5 days (fraction); higher = more cells survive
Dovitinib + Lapatinib = compound: CN1CCN(c2ccc3nc(-c4c(N)c5c(F)cccc5[nH]c4=O)[nH]c3c2)CC1 [Dovitinib] + CS(=O)(=O)CCNCc1ccc(-c2ccc3ncnc(Nc4ccc(OCc5cccc(F)c5)c(Cl)c4)c3c2)o1 [Lapatinib] (partner 2 µM)
Summary of the method: (§1)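 Lung cancer cell lines, seeded in 1536-well plates, were treated the following day by pin tool with a single drug or with five library-drug doses (not always all listed) in √10 steps on top of a fixed anchor-drug dose. Cells were fixed and nuclei stained in one step after 5 days, and nuclei were counted. Relative viability is the nuclei count for treated wells divided by that for vehicle wells, reported as medians of duplicate plates.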

Dovitinib + Decitabine = compound: CN1CCN(c2ccc3nc(-c4c(N)c5c(F)cccc5[nH]c4=O)[nH]c3c2)CC1 [Dovitinib] + Nc1ncn([C@H]2C[C@H](O)[C@@H](CO)O2)c(=O)n1 [Decitabine] (partner 2 µM)
Summary of the method: as §1

Dovitinib + AZD7762 = compound: CN1CCN(c2ccc3nc(-c4c(N)c5c(F)cccc5[nH]c4=O)[nH]c3c2)CC1 [Dovitinib] + NC(=O)Nc1cc(-c2cccc(F)c2)sc1C(=O)N[C@H]1CCCNC1 [AZD7762] (partner 0.2 µM)
Summary of the method: as §1

Dovitinib + Bortezomib = compound: CN1CCN(c2ccc3nc(-c4c(N)c5c(F)cccc5[nH]c4=O)[nH]c3c2)CC1 [Dovitinib] + CC(C)C[C@H](NC(=O)[C@H](Cc1ccccc1)NC(=O)c1cnccn1)B(O)O [Bortezomib] (partner 0.002 µM)
Summary of the method: as §1

Cell Line	relative viability (Dovitinib + Lapatinib; first compound 0.02 µM)	relative viability (Dovitinib + Lapatinib; first compound 0.06325 µM)	relative viability (Dovitinib + Lapatinib; first compound 0.6325 µM)	relative viability (Dovitinib + Lapatinib; first compound 2 µM)	relative viability (Dovitinib + Decitabine; first compound 0.02 µM)	relative viability (Dovitinib + Decitabine; first compound 0.06325 µM)	relative viability (Dovitinib + Decitabine; first compound 0.2 µM)	relative viability (Dovitinib + Decitabine; first compound 0.6325 µM)	relative viability (Dovitinib + Decitabine; first compound 2 µM)	relative viability (Dovitinib + AZD7762; first compound 0.02 µM)	relative viability (Dovitinib + AZD7762; first compound 0.06325 µM)	relative viability (Dovitinib + AZD7762; first compound 0.2 µM)	relative viability (Dovitinib + AZD7762; first compound 0.6325 µM)	relative viability (Dovitinib + AZD7762; first compound 2 µM)	relative viability (Dovitinib + Bortezomib; first compound 0.02 µM)	relative viability (Dovitinib + Bortezomib; first compound 0.06325 µM)	relative viability (Dovitinib + Bortezomib; first compound 0.6325 µM)	relative viability (Dovitinib + Bortezomib; first compound 2 µM)	relative viability (Dovitinib + Lapatinib; first compound 0.2 µM)	relative viability (Dovitinib + Bortezomib; first compound 0.2 µM)
201T	0.95	0.993	1.01	0.968	0.817	0.857	0.839	0.844	0.871	0.615	0.814	0.598	0.606	0.562	1.05	1.04	1.1	1.09	–	–
A-427	1.02	0.952	0.975	1.05	0.569	0.512	0.695	0.581	0.59	0.767	0.733	0.674	0.665	0.697	0.87	0.909	0.93	1.03	1.01	0.953
ABC-1	1.15	1.28	1.18	0.969	1.08	0.991	1.03	0.891	1.14	0.519	0.852	0.735	0.536	0.698	0.262	0.34	0.323	0.315	1.02	0.306
BEN	0.533	0.822	0.771	0.808	0.754	0.599	0.683	0.783	0.71	0.692	0.697	0.637	0.877	0.597	0.705	0.991	1.12	0.679	0.835	0.948
CAL-12T	0.709	0.501	0.618	0.986	–	–	–	–	–	0.648	0.664	0.558	0.659	0.505	1.28	1	0.977	1.05	0.713	1.1
ChaGo-K-1	–	–	–	–	0.528	0.517	0.498	0.514	0.487	0.901	0.891	0.892	0.9	0.857	1.1	1.01	1.04	1.03	–	0.952
EKVX	0.252	0.189	0.21	0.21	0.388	0.399	0.348	0.339	0.286	0.569	0.775	0.694	0.755	0.684	1.08	1.08	1.06	1.08	0.257	1.22
EMC-BAC-2	0.886	0.839	0.807	0.923	1.1	0.958	1.06	1	1.01	1.21	1.06	1.1	1.08	1.16	1.05	0.995	1.05	1.04	0.898	1.08
EPLC-272H	0.992	0.939	1.1	1.23	0.403	0.333	0.336	0.372	0.374	0.281	0.218	0.197	0.218	0.239	0.917	0.949	0.875	0.905	0.94	0.883
H3255	0.217	0.266	0.266	0.255	0.609	0.642	0.603	0.636	0.614	0.966	0.907	1	0.89	0.809	0.773	0.642	0.739	0.788	0.288	0.804
HARA	0.914	0.716	0.805	0.602	0.733	0.618	0.508	0.57	0.465	0.334	0.257	0.381	0.211	0.315	1.26	1.16	1.17	1.2	0.564	1.01
HCC-15	0.853	0.857	0.874	0.845	0.684	0.746	0.686	0.676	0.619	1.05	1.17	1.1	1.19	1.32	1.03	1.07	1.05	1.02	0.91	1.02
HCC-44	1.01	1.02	0.938	1.01	0.926	0.936	0.97	0.962	0.92	0.979	0.97	1.03	0.955	0.975	0.822	0.836	0.894	0.916	1.03	0.867
HCC-78	0.539	–	1.03	0.663	0.741	0.659	0.686	0.655	0.631	0.71	0.481	0.674	0.699	0.489	0.636	0.486	0.567	0.355	0.901	0.531
HCC-366	0.892	1.08	1.07	1.01	0.341	0.363	0.362	0.317	0.378	0.155	0.301	0.297	0.239	0.357	1.08	1.06	1.06	0.999	1.03	0.987
HCC-827	0.191	0.171	0.202	0.191	0.308	0.353	0.324	0.336	0.338	0.203	0.213	0.244	0.237	0.212	1.08	1.07	1.09	1.05	0.216	1.04
HOP-62	0.876	0.999	1.24	1.1	0.208	0.255	0.191	0.269	0.214	0.364	0.534	0.697	0.62	0.551	0.604	0.619	0.968	0.578	1	0.794
